Results published in ChEMBL document CHEMBL4393717, “Development of novel human lactate dehydrogenase A inhibitors: High-throughput screening, synthesis, and biological evaluations” (Eur J Med Chem, 2019).
Calls of active or inactive are those of the source. No cut-off for these calls is given here.

Assays:
A549 [1] = test: Antiproliferative activity against human A549 cells assessed as reduction in cell viability at 50 uM incubated for 72 hrs by MTT assay relative to control; assay type: functional; conditions: for inhibition at 50 µM: A549, 72 h
MCF7 = test: Antiproliferative activity against human MCF7 cells assessed as reduction in cell viability at 50 uM incubated for 72 hrs by MTT assay relative to control; assay type: functional; conditions: for inhibition at 50 µM: MCF7, 72 h
MIA PaCa-2 [2] = test: Antiproliferative activity against human MIAPaCa2 cells assessed as reduction in cell viability at 50 uM incubated for 72 hrs by MTT assay relative to control; assay type: functional; conditions: for inhibition at 50 µM: MIA PaCa-2, 72 h
A549 [3] = test: Antiproliferative activity against human A549 cells assessed as reduction in cell viability at incubated for 72 hrs by MTT assay; assay type: functional, cell-based; conditions: A549, 72 h
[4] = molecular target: T1, L-lactate dehydrogenase A chain (Homo sapiens, UniProt P00338); test: Inhibition of recombinant human full-length N-terminal His-tagged LDHA (1 to 332 residues) expressed in Escherichia coli at 10 uM using sodium pyruvate as substrate incubated for 10 mins relative to control
[5] = molecular target: T1, L-lactate dehydrogenase A chain; test: Inhibition of recombinant human full-length N-terminal His-tagged LDHA (1 to 332 residues) expressed in Escherichia coli using sodium pyruvate as substrate incubated for 10 mins
MIA PaCa-2 [6] = test: Antiproliferative activity against human MIAPaCa2 cells assessed as reduction in cell viability incubated for 72 hrs by MTT assay; assay type: functional, cell-based; conditions: MIA PaCa-2, 72 h
MIA PaCa-2 [7] = test: Cell cycle arrest in human MIAPaCa2 cells assessed as accumulation at G1 phase at 5 uM incubated for 24 hrs by propidium iodide staining based flow cytometry (reference value: 56.01%); assay type: functional
MIA PaCa-2 [8] = test: Cell cycle arrest in human MIAPaCa2 cells assessed as accumulation at S phase at 5 uM incubated for 24 hrs by propidium iodide staining based flow cytometry (reference value: 12.99%); assay type: functional
MIA PaCa-2 [9] = test: Inhibition of colony formation in human MIAPaCa2 cells at 0.5 uM treated for 3 days and supplemented with fresh medium with out compound every 3 days measured after 15 days by crystal violet staining based assay; assay type: functional, cell-based
MIA PaCa-2 [10] = test: Induction of apoptosis in human MIAPaCa2 cells assessed as early apoptotic cells at 5 uM incubated for 12 hrs by annexin V and propidium iodide staining based flow cytometry analysis (reference value: 0.40 %); assay type: functional
MIA PaCa-2 [11] = test: Cell cycle arrest in human MIAPaCa2 cells assessed as accumulation at G2 phase at 5 uM incubated for 24 hrs by propidium iodide staining based flow cytometry (reference value: 31.00%); assay type: functional
MIA PaCa-2 [12] = test: Induction of apoptosis in human MIAPaCa2 cells assessed as late apoptotic cells at 5 uM incubated for 12 hrs by annexin V and propidium iodide staining based flow cytometry analysis (reference value: 3.21 %); assay type: functional
MIA PaCa-2 [13] = test: Induction of apoptosis in human MIAPaCa2 cells assessed as necrotic cells at 5 uM incubated for 12 hrs by annexin V and propidium iodide staining based flow cytometry analysis (reference value: 1.54 %); assay type: functional
MIA PaCa-2 [14] = test: Induction of apoptosis in human MIAPaCa2 cells assessed as viable cells at 5 uM incubated for 12 hrs by annexin V and propidium iodide staining based flow cytometry analysis (reference value: 94.85 %); assay type: functional; conditions: MIA PaCa-2, 12 h, read-out: Activity

| SMILES | inhibition at 50 µM (A549 [1]) [%] | inhibition at 50 µM (MCF7) [%] | inhibition at 50 µM (MIA PaCa-2 [2]) [%] | IC50 (A549 [3]) [µM] | inhibition [4] [%] | EC50 [5] [µM] | IC50 (MIA PaCa-2 [6]) [µM] | further results |
| --- | --- | --- | --- | --- | --- | --- | --- | --- |
| COc1cccc(N2CCN(C3CCN(C(=O)c4cnn5c4OCCC5)CC3)CC2)c1 | 25.8 | 17.9 | 12.4 | > 50 | > 90 | 3.4 | > 50 | – |
| COc1cccc2c1OC(C(=O)N1CCC(Cn3ccnc3C(C)C)CC1)C2 (stereo not given) | – | – | – | > 50 | > 90 | 7.5 | > 50 | inhibition (A549 [1]): inactive; inhibition (MCF7): inactive; inhibition (MIA PaCa-2 [2]): inactive |
| O=C(c1ccco1)N1CCN(Cc2cc(=O)c(OCc3ccccc3)co2)CC1 | 84.7 | 93.4 | 95.6 | 14.7 | > 90 | 0.68 | 12.5 | – |
| O=C(c1ccco1)N1CCN(Cc2cc(=O)c(OCc3cccc(Cl)c3)co2)CC1 | – | – | – | 5.7 | – | 0.27 | 3.8 | – |
| NC(=O)C(=O)O [SODIUM OXAMATE] | – | – | – | 45800 | – | – | 18900 | – |
| N#Cc1cccnc1N1CCC(CNC(=O)C(=O)Nc2cccc(C(F)(F)F)c2)CC1 | 45.7 | 38.7 | 56.8 | > 50 | > 90 | 1.8 | > 50 | – |
| O=C(c1ccco1)N1CCN(Cc2cc(=O)c(OCc3ccc(F)cc3)co2)CC1 | – | – | – | > 50 | – | 9.7 | > 50 | – |
| O=C(NCC(=O)N1CCCC(Cc2nc(C3CC3)no2)C1)c1ccccc1 (stereo not given) | 25.8 | 17.9 | 12.5 | > 50 | > 90 | 3.3 | > 50 | – |
| O=C(Cn1cnc2ccccc2c1=O)N1CCN(C(=O)c2cc3n(n2)CCCC3)CC1 | 45.6 | 25.7 | 58.7 | > 50 | > 90 | 0.89 | > 50 | – |
| O=C(CCC1CCCCC1)N1CCN(c2ncnc3c2nnn3Cc2ccccc2)CC1 | 45.6 | 22.3 | 21.4 | > 50 | > 90 | 2.14 | > 50 | – |
| O=C(c1ccco1)N1CCN(Cc2cc(=O)c(OCc3cccc(F)c3)co2)CC1 | – | – | – | 18.9 | – | 3.7 | 24.5 | – |
| Cc1cc(N2CCC(CNS(=O)(=O)c3cccc4cccnc34)CC2)ccn1 | 14.7 | – | 25.8 | > 50 | > 90 | 0.34 | > 50 | – |
| CC(=O)c1ccc(NC(=O)COc2cc(C)nc(C3CCC(C)CC3)n2)cc1 (stereo not given) | 45.8 | 85.7 | 75.6 | 22.7 | > 90 | 1.2 | 29.8 | – |
| O=C(c1ccco1)N1CCN(Cc2cc(=O)c(OCc3c(F)cccc3Cl)co2)CC1 | – | – | – | > 50 | – | 5.6 | > 50 | – |
| Cc1ncn(CC(=O)N2CC(Oc3cc(C)n(C4CC4)c(=O)c3)C2)c(=O)c1C | 4.5 | 12.3 | – | > 50 | > 90 | 6.4 | > 50 | – |
| O=C1N[C@](c2ccc(N3CCOCC3)cc2)(c2ccsc2)CC(O)=C1Sc1ccccc1Cl | – | – | – | 0.36 | – | – | 0.48 | – |
| COc1cc(CNC(=O)c2c(OC)cc(=O)n3c2CCC3)cc(OC)c1OC | – | – | – | > 50 | > 90 | 4.58 | > 50 | inhibition (A549 [1]): inactive; inhibition (MCF7): inactive; inhibition (MIA PaCa-2 [2]): inactive |
| Cc1ccccc1OCC(=O)NCc1nn(C2CCCC2)c2c1COCC2 | – | – | – | > 50 | > 90 | 5.7 | > 50 | inhibition (A549 [1]): inactive; inhibition (MCF7): inactive; inhibition (MIA PaCa-2 [2]): inactive |
| COc1ccccc1OCC(=O)NC1CCC(Oc2nc(C)cc(C)n2)CC1 (stereo not given) | 5.9 | 9.7 | 25.7 | > 50 | > 90 | 4.1 | > 50 | – |
| O=C(CC1CSc2nc3c(cnn3-c3ccccc3)c(=O)n21)NCCCn1ccnc1 (stereo not given) | 36.9 | 14.7 | 15.8 | > 50 | > 90 | 7.8 | > 50 | – |
| O=C(c1ccco1)N1CCN(Cc2cc(=O)c(OCc3ccccc3Cl)co2)CC1 | – | – | – | > 50 | – | 12.4 | > 50 | – |
| Cc1ncn(CC(=O)N2CCC(Oc3cncc(N(C)C)n3)C2)c(=O)c1C (stereo not given) | 47.8 | 50.1 | 25.8 | > 50 | > 90 | 2.9 | > 50 | – |
| COc1cccc2c1C(=O)c1c(O)c3c(c(O)c1C2=O)C[C@@](O)(C(=O)CO)C[C@@H]3O[C@H]1C[C@H](N)[C@H](O)[C@H](C)O1 [DOXORUBICIN] | – | – | – | – | – | – | – | Activity (MIA PaCa-2 [7]): 40.09%; Activity (MIA PaCa-2 [8]): 5.54%; inhibition (MIA PaCa-2 [9]): Active; Activity (MIA PaCa-2 [10]): 2.26%; Activity (MIA PaCa-2 [11]): 54.37%; Activity (MIA PaCa-2 [12]): 15.66%; Activity (MIA PaCa-2 [13]): 7.4%; viability at 5 µM (MIA PaCa-2 [14]): 74.7% |
